According to the Kinase Knowledgebase extract (Sharma et al. 2016):

Experiments:
EGFR (human) [1] = target: EGFR (human) (UniProt P00533); details: kb
EGFR (human) [2] = target: EGFR (human) (UniProt P00533); details: a431, dose or concentration not given here

EGFR (human), sequence (P00533 whole entry, looked up): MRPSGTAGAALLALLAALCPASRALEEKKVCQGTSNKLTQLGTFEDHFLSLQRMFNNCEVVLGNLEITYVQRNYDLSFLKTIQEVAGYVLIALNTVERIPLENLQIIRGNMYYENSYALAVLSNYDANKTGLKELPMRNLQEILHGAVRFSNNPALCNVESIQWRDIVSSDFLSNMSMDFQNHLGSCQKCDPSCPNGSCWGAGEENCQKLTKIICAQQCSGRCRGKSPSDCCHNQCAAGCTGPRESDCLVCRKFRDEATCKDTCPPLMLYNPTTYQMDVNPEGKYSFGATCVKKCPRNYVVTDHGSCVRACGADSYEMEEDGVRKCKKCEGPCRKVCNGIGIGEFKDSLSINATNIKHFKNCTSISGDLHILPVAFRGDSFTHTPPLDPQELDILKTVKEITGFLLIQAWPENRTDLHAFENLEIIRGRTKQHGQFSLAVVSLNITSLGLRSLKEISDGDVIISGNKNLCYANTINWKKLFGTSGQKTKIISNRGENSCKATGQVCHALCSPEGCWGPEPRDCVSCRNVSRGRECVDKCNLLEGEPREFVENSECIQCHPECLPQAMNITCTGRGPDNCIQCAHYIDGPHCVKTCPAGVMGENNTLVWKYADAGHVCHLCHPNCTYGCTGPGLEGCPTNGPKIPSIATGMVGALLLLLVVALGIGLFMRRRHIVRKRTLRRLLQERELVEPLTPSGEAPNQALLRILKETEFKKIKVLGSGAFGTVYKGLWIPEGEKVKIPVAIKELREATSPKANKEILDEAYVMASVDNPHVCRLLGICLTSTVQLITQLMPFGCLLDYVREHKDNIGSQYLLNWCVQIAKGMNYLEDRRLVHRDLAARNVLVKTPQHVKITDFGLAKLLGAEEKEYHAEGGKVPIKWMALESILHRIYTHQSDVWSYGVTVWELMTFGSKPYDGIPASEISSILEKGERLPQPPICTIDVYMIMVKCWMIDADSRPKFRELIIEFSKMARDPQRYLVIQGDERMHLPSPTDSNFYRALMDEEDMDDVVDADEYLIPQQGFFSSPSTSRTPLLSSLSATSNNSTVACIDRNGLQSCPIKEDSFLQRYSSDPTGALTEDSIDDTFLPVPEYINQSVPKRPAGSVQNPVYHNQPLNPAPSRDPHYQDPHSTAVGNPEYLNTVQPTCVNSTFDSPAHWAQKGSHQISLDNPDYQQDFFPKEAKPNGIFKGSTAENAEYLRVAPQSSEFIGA

| Structure (SMILES) | IC50 (EGFR (human) [1]) | inhibition (EGFR (human) [2]) |
| --- | --- | --- |
| COc1cc2ncnc(NC3CC3c3ccccc3)c2cc1O (centres undefined) | > 25000 nM |  |
| COc1cc2ncnc(Nc3nccc4ccccc34)c2cc1OC | 1800 nM |  |
| COc1cc2ncnc(N3CCc4ccccc43)c2cc1OC | 4100 nM |  |
| COc1cc2ncnc(NC3CCc4ccccc43)c2cc1OC (centres undefined) | 1730 nM |  |
| COc1cc2ncnc(NCc3cccc(C)c3)c2cc1OC | 1600 nM |  |
| COc1cc2ncnc(Nc3cnc4ccccc4n3)c2cc1OC | > 25000 nM |  |
| COc1cc2ncnc(Nc3nnc4ccccc4n3)c2cc1OC | > 25000 nM |  |
| COc1cc2ncnc(NC3CC3c3ccccc3)c2cc1OC(C)=O (centres undefined) | 11400 nM |  |

Compounds with a lower IC50 (EGFR (human) [1]), results first:

| IC50 (EGFR (human) [1]) | Structure (SMILES) | inhibition (EGFR (human) [2]) |
| --- | --- | --- |
| 780 nM | COc1cc2ncnc(NNc3ccc(F)c(Cl)c3)c2cc1OC |  |
| 570 nM | COc1cc2ncnc(NC3CC3c3ccccc3)c2cc1OCCN1CCOCC1 (centres undefined) |  |
| 360 nM | COc1cc2ncnc(Nc3cncc4ccccc34)c2cc1OC |  |
| 310 nM | COc1cc2ncnc(NC3CC3c3ccccc3)c2cc1OCCCN(C)C (centres undefined) | 36% |
| 140 nM | COc1cc2ncnc(NC3CC3c3ccccc3)c2cc1OC (centres undefined) |  |
